# Source: patent publication US12655116B2, “Substituted isophthalic acid diamides” (Bayer Aktiengesellschaft, priority 2020, dated 2026)
# Key:
# MATIN [1] = assay: Pre-emergence herbicidal action against MATIN; assay type: in vivo, Matricaria inodora
# Procedure, shortened: (§1)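 Herbicidal effect was assessed 3 weeks after treatment by visual comparison with untreated controls, 100% denoting dead plants. Aqueous WP or EC preparations had been applied at 600 to 800 l/ha with 0.2% wetting agent to the soil covering freshly sown seeds.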
# ABUTH [2] = assay: Post-emergence herbicidal action against ABUTH; assay type: in vivo, Abutilon theophrasti; settings: visual assessment about 3 weeks after treatment vs untreated controls
# Procedure, shortened: (§2)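 Herbicidal effect was scored visually in percent after about 3 weeks in the greenhouse. Plants had been raised in sandy loam and treated post-emergence at the one-leaf stage with formulated compound at 600 to 800 l/ha water plus 0.2% wetting agent.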
# PHBPU [3] = assay: Post-emergence herbicidal action against PHBPU; assay type: in vivo, Pharbitis purpurea; settings: dosage 20 g/ha
# Procedure, shortened: as §2
# SETVI [4] = assay: Post-emergence herbicidal action against SETVI; assay type: in vivo, Setaria viridis; settings: dosage 20 g/ha
# Procedure, shortened: as §2
# POLCO [5] = assay: Post-emergence herbicidal action against POLCO; assay type: in vivo, Polygonum convolvulus; settings: dosage 20 g/ha
# Experimental: Seeds of monocotyledonous and dicotyledonous weed and crop plants are laid out in sandy loam soil in wood-fiber pots, covered with soil and cultivated in a greenhouse under good growth conditions. 2 to 3 weeks after sowing, the test plants are treated at the one-leaf stage. The compounds of the invention, formulated in the form of wettable powders (WP) or as emulsion concentrates (EC), are then sprayed onto the green parts of the plants in the form of an aqueous suspension or emulsion at a water application rate equivalent to 600 to 800 l/ha, with addition of 0.2% wetting agent. After the test plants have been left to stand in the greenhouse under optimal growth conditions for about 3 weeks, the action of the preparations is assessed visually in comparison to untreated controls (herbicidal action in percent (%): 100% activity=the plants have died, 0% activity=like control plants). […] The tables below illustrate, in an illustrative manner, the post-emergence herbicidal action of the compounds of the invention, the herbicidal activity being stated in percent.
# ECHCG [6] = assay: Post-emergence herbicidal action against ECHCG; assay type: in vivo, Echinochloa crus-galli
# Procedure, shortened: as §2
# ECHCG [7] = assay: Pre-emergence herbicidal action against ECHCG; assay type: in vivo, Echinochloa crus-galli; settings: 80 g/ha
# Procedure, shortened: as §1
# SETVI [8] = assay: Pre-emergence herbicidal action against SETVI; assay type: in vivo, Setaria viridis
# Procedure, shortened: as §1
# ALOMY [9] = assay: Pre-emergence herbicidal action against ALOMY; assay type: in vivo, Alopecurus myosuroides
# Procedure, shortened: as §1
# AVEFA = assay: Pre-emergence herbicidal action against AVEFA; assay type: in vivo, Avena fatua; settings: 80 g/ha, pre-emergence
# Procedure, shortened: as §1
# PHBPU [10] = assay: Pre-emergence herbicidal action against PHBPU; assay type: in vivo, Pharbitis purpurea; settings: dosage 80 g/ha
# Procedure, shortened: as §1
# DIGSA = assay: Pre-emergence herbicidal action against DIGSA; assay type: in vivo, Digitaria sanguinalis
# Procedure, shortened: as §1
# AMARE = assay: Pre-emergence herbicidal action against AMARE; assay type: in vivo, Amaranthus retroflexus
# Procedure, shortened: as §1
# VIOTR [11] = assay: Pre-emergence herbicidal action against VIOTR; assay type: in vivo, Viola tricolor
# Procedure, shortened: as §1
# POLCO [12] = assay: Pre-emergence herbicidal action against POLCO; assay type: in vivo, Polygonum convolvulus
# Procedure, shortened: as §1
# ABUTH [13] = assay: Pre-emergence herbicidal action against ABUTH; assay type: in vivo, Abutilon theophrasti
# Procedure, shortened: as §1
# MATIN [14] = assay: Post-emergence herbicidal action against MATIN; assay type: in vivo, Matricaria inodora
# Procedure, shortened: as §2
# VERPE [15] = assay: Post-emergence herbicidal action against VERPE; assay type: in vivo, Veronica persica; settings: Veronica persica, 504 h
# Procedure, shortened: as §2
# VIOTR [16] = assay: Post-emergence herbicidal action against VIOTR; assay type: in vivo, Viola tricolor
# Procedure, shortened: as §2
# VERPE [17] = assay: Pre-emergence herbicidal action against VERPE; assay type: in vivo, Veronica persica; settings: Veronica persica, 504 h, dosage 80 g/ha
# Procedure, shortened: as §1
# ALOMY [18] = assay: Post-emergence herbicidal action against ALOMY; assay type: in vivo, Alopecurus myosuroides; settings: dosage 20 g/ha, visual assessment about 3 weeks after treatment vs untreated controls
# Procedure, shortened: as §2
# [19] = 80 g/ha, pre-emergence, scored visually after 3 weeks vs untreated controls (100% = plants have died, 0% = like control plants)
# [20] = 20 g/ha, scored visually after 3 weeks vs untreated controls, 100% = plants have died, 0% = like control plants
# [21] = 80 g/ha, scored visually after 3 weeks vs untreated controls (100% = plants have died, 0% = like control plants)
# [22] = Tripleurospermum inodorum, 504 h, dosage 20 g/ha
structure (smiles),measurement,setting,value
CCn1nnnc1NC(=O)c1ccc(C(F)(F)F)c(C(=O)NCC(F)F)c1C [Example 2-30],Pre-emergence action against MATIN in %,MATIN [1]; dosage 20 g/ha,100%
same,Pre-emergence action against MATIN in %,MATIN [1]; dosage 80 g/ha,100%
same,Post-emergence action against ABUTH in %,ABUTH [2]; dosage 5 g/ha,80%
same,Post-emergence action against ABUTH in %,ABUTH [2]; dosage 20 g/ha,80%
same,Post-emergence action against PHBPU in %,PHBPU [3],90%
same,Post-emergence action against SETVI in %,SETVI [4],80%
same,Post-emergence action against POLCO in %,POLCO [5],80%
same,Post-emergence action against ECHCG in %,ECHCG [6]; dosage 5 g/ha,80%
same,Post-emergence action against ECHCG in %,ECHCG [6]; dosage 20 g/ha,80%
same,Pre-emergence action against ECHCG in %,ECHCG [7],100%
same,Pre-emergence action against SETVI in %,SETVI [8]; dosage 20 g/ha,100%
same,Pre-emergence action against SETVI in %,SETVI [8]; dosage 80 g/ha,100%
same,Pre-emergence action against ALOMY (herbicidal activity),ALOMY [9]; [19],100%
same,Pre-emergence action against AVEFA in %,AVEFA,100%
same,Pre-emergence action against PHBPU in %,PHBPU [10],80%
same,Pre-emergence action against DIGSA in %,DIGSA; dosage 20 g/ha,100%
same,Pre-emergence action against DIGSA in %,DIGSA; dosage 80 g/ha,100%
same,Pre-emergence action against AMARE in %,AMARE; [20],100%
same,Pre-emergence action against AMARE in %,AMARE; [21],100%
same,Pre-emergence action against VIOTR in %,VIOTR [11]; dosage 20 g/ha,100%
same,Pre-emergence action against VIOTR in %,VIOTR [11]; dosage 80 g/ha,100%
same,Pre-emergence action against POLCO in %,POLCO [12]; dosage 20 g/ha,80%
same,Pre-emergence action against POLCO in %,POLCO [12]; dosage 80 g/ha,80%
same,Pre-emergence action against ABUTH (herbicidal activity),ABUTH [13]; [21],100%
COc1c(C(=O)Nc2nnnn2C)ccc(C(F)F)c1C(=O)NC1CC1 [Example 1-74],pest or weed control at 20 g/ha,MATIN [1]; [22],100%
same,pest or weed control at 80 g/ha,"MATIN [1]; Tripleurospermum inodorum, 504 h, dosage 80 g/ha",100%
same,pest or weed control at 5 g/ha,"ABUTH [2]; Abutilon theophrasti, 504 h, dosage 5 g/ha",80%
same,pest or weed control at 20 g/ha,"ABUTH [2]; Abutilon theophrasti, 504 h, dosage 20 g/ha",80%
same,pest or weed control at 20 g/ha,"PHBPU [3]; Ipomoea purpurea, 504 h",90%
same,pest or weed control at 20 g/ha,"SETVI [4]; Setaria viridis, 504 h",100%
same,pest or weed control at 5 g/ha,"MATIN [14]; Tripleurospermum inodorum, 504 h, dosage 5 g/ha",80%
same,pest or weed control at 20 g/ha,MATIN [14]; [22],90%
same,pest or weed control at 20 g/ha,"POLCO [5]; Fallopia convolvulus, 504 h",80%
same,pest or weed control at 5 g/ha,"ECHCG [6]; Echinochloa crus-galli, 504 h, dosage 5 g/ha",80%
same,pest or weed control at 20 g/ha,"ECHCG [6]; Echinochloa crus-galli, 504 h, dosage 20 g/ha",80%
same,pest or weed control at 80 g/ha,"ECHCG [7]; Echinochloa crus-galli, 504 h",100%
same,pest or weed control at 20 g/ha,"SETVI [8]; Setaria viridis, 504 h, dosage 20 g/ha",100%
same,pest or weed control at 80 g/ha,"SETVI [8]; Setaria viridis, 504 h, dosage 80 g/ha",100%
same,pest or weed control at 80 g/ha,"ALOMY [9]; Alopecurus myosuroides, 504 h, 80 g/ha, pre-emergence, scored visually after 3 weeks vs untreated controls (100% = plants have died, 0% = like control plants)",90%
same,pest or weed control at 80 g/ha,"PHBPU [10]; Ipomoea purpurea, 504 h",100%
same,pest or weed control at 5 g/ha,VERPE [15]; 5 g/ha,80%
same,pest or weed control at 20 g/ha,VERPE [15]; 20 g/ha,90%
same,pest or weed control at 20 g/ha,"DIGSA; Digitaria sanguinalis, 504 h, dosage 20 g/ha",100%
same,pest or weed control at 80 g/ha,"DIGSA; Digitaria sanguinalis, 504 h, dosage 80 g/ha",100%
same,pest or weed control at 5 g/ha,"VIOTR [16]; Viola tricolor, 504 h, 5 g/ha",80%
same,pest or weed control at 20 g/ha,"VIOTR [16]; Viola tricolor, 504 h, 20 g/ha",90%
same,pest or weed control at 20 g/ha,"AMARE; Amaranthus retroflexus, 504 h, 20 g/ha, scored visually after 3 weeks vs untreated controls, 100% = plants have died, 0% = like control plants",100%
same,pest or weed control at 80 g/ha,"AMARE; Amaranthus retroflexus, 504 h, 80 g/ha, scored visually after 3 weeks vs untreated controls, 100% = plants have died, 0% = like control plants",100%
same,pest or weed control at 20 g/ha,"VIOTR [11]; Viola tricolor, 504 h, dosage 20 g/ha",100%
same,pest or weed control at 80 g/ha,"VIOTR [11]; Viola tricolor, 504 h, dosage 80 g/ha",100%
same,pest or weed control at 80 g/ha,VERPE [17],100%
same,pest or weed control at 80 g/ha,"POLCO [12]; Fallopia convolvulus, 504 h, dosage 80 g/ha",80%
same,pest or weed control at 80 g/ha,"ABUTH [13]; Abutilon theophrasti, 504 h, 80 g/ha, scored visually after 3 weeks vs untreated controls (100% = plants have died, 0% = like control plants)",100%
same,pest or weed control at 20 g/ha,"ABUTH [13]; Abutilon theophrasti, 504 h, dosage 20 g/ha, scored visually after 3 weeks vs untreated controls, 100% = plants have died, 0% = like control plants, read-out: Pre-emergence action against ABUTH (herbicidal activity in percent)",100%
CCn1nnnc1NC(=O)c1ccc(Br)c(C(=O)NCC2CC2)c1Cl [Example 2-180],Pre-emergence action against MATIN in %,MATIN [1]; dosage 20 g/ha,100%
same,Pre-emergence action against MATIN in %,MATIN [1]; dosage 80 g/ha,100%
same,Post-emergence action against PHBPU in %,PHBPU [3],90%
same,Post-emergence action against SETVI in %,SETVI [4],90%
same,Post-emergence action against ALOMY in %,ALOMY [18],90%
same,Post-emergence action against MATIN in %,MATIN [14]; dosage 20 g/ha,80%
same,Post-emergence action against POLCO in %,POLCO [5],100%
same,Post-emergence action against ECHCG in %,ECHCG [6]; dosage 20 g/ha,90%
same,Pre-emergence action against ECHCG in %,ECHCG [7],100%
same,Pre-emergence action against SETVI in %,SETVI [8]; dosage 80 g/ha,100%
same,Pre-emergence action against ALOMY,"ALOMY [9]; 20 g/ha, scored visually after 3 weeks, 100% = plants have died, 0% = like control plants",80%
same,Pre-emergence action against ALOMY (herbicidal activity),ALOMY [9]; [19],100%
same,Pre-emergence action against AVEFA in %,AVEFA,80%
same,Pre-emergence action against PHBPU in %,PHBPU [10],100%
same,Pre-emergence action against DIGSA in %,DIGSA; dosage 20 g/ha,100%
same,Pre-emergence action against DIGSA in %,DIGSA; dosage 80 g/ha,100%
same,Post-emergence action against VIOTR in %,VIOTR [16]; 20 g/ha,100%
same,Pre-emergence action against AMARE in %,AMARE; [20],100%
same,Pre-emergence action against AMARE in %,AMARE; [21],100%
same,Pre-emergence action against VIOTR in %,VIOTR [11]; dosage 20 g/ha,100%
same,Pre-emergence action against VIOTR in %,VIOTR [11]; dosage 80 g/ha,100%
same,Pre-emergence action against POLCO in %,POLCO [12]; dosage 80 g/ha,90%
same,Pre-emergence action against ABUTH (herbicidal activity),ABUTH [13]; [21],100%
same,Pre-emergence action against ABUTH (herbicidal activity in percent),"ABUTH [13]; dosage 20 g/ha, scored visually after 3 weeks vs untreated controls, 100% = plants have died, 0% = like control plants",100%
